Experimental data as given in patent US8597875B2, “Method for diagnosing liver toxicity with sex specific biomarkers” (BASF SE, priority 2008, dated 2013).

Columns and labels:
female rats = assay: Plasma metabolite profiling (GC-MS/LC-MS) for liver toxicity markers, 28-day gavage study, female rats; assay type: in vivo, rat; details: female rats
Method: (§1) A group of each 5 male and female rats was dosed once daily with the indicated compounds (see tables below) at 10 and 100 mg/kg body weight per gavage over 28 days. Additional groups of each 5 male and female animals served as controls. Before starting the treatment period, animals, which were 62-64 days old when supplied, were acclimatized to the housing and environmental conditions for 7 days. All animals of the animal population were kept under the same constant temperature (20-24±3° C.) and the same constant humidity (30-70%). Each animal of the animal population was kept in a separate cage. The animals of the animal population are fed ad libitum. The food to be used was be essentially free of chemical or microbial contaminants. Drinking water was also offered ad libitum. Accordingly, the water was be free of chemical and microbial contaminants as laid down in the European Drinking Water Directive 98/83/EG. The illumination period was 12 hours light followed by 12 hours darkness (12 hours light, from 6:00 to 18:00, and 12 hours darkness, from 18:00 to 6:00).
(§2) In the morning of day 7, 14, and 28, blood was taken from the retroorbital venous plexus from fasted anaesthetized animals. From each animal, 1 ml of blood was collected with EDTA as anticoagulant. The samples were be centrifuged for generation of plasma. All plasma samples were covered with a N2 atmosphere and then stored at −80° C. until analysis.
(§3) For mass spectrometry-based metabolite profiling analyses plasma samples were extracted and a polar and a non-polar fraction was obtained. For GC-MS analysis, the non-polar fraction was treated with methanol under acidic conditions to yield the fatty acid methyl esters. Both fractions were further derivatised with O-methyl-hydroxyamine hydrochloride and pyridine to convert Oxo-groups to O-methyloximes and subsequently with a silylating agent before analysis. In LC-MS analysis, both fractions were reconstituted in appropriate solvent mixtures. HPLC was performed by gradient elution on reversed phase separation columns. For mass spectrometric detection metanomics proprietary technology was applied which allows target and high sensitivity MRM (Multiple Reaction Monitoring) profiling in parallel to a full screen analysis.
(§4) Following comprehensive analytical validation steps, the data for each analyte were normalized against data from pool samples. These samples were run in parallel through the whole process to account for process variability. The significance of treatment group values specific for sex, dose group and metabolite was determined by comparing means of the treated groups to the means of the respective untreated control groups using WELCH-test. Normalized treatment group values and their significance were fed into a database for further statistics and data mining processes.
(§5) The changes of the group of plasma metabolites being indicative for liver toxicity after treatment of the rats are shown in the following tables: […]

male rats = assay: Plasma metabolite profiling (GC-MS/LC-MS) for liver toxicity markers, 28-day gavage study, male rats; assay type: in vivo, rat; details: male rats
Method: as §1, §2, §3, §4, §5

## CN(C)C=O [Dimethylformamide]
Female rats; fh7 (day 7)
  1,2-Dioleoyl-sn-glycero-3-phosphatidyl-L-serine, change of plasma metabolite: 1.35
  4-Hydroxysphinganine, change of plasma metabolite: 1.79
  Arachidonic acid (C20:cis-[5,8,11,14]4), change of plasma metabolite: 2.04
  Behenic acid (C22:0), change of plasma metabolite: 2.15
  Ceramide (d18:1, C24:0), change of plasma metabolite: 1.64
  Cholesterol, change of plasma metabolite: 2.41
  Docosahexaenoic acid (C22:cis[4,7,10,13,16,19]6), change of plasma metabolite: 2.02
  Glycerol, lipid fraction, change of plasma metabolite: 1.64
  Glycerolphosphate, lipid fraction, change of plasma metabolite: 2.37
  Heptadecanoic acid (C17:0), change of plasma metabolite: 1.43
  ID28x493, change of plasma metabolite: 2.27
  Lignoceric acid (C24:0), change of plasma metabolite: 2.01
  Linoleic acid (C18:cis[9,12]2), change of plasma metabolite: 1.90
  Nervonic acid (C24:1), change of plasma metabolite: 2.51
  Palmitic acid (C16:0), change of plasma metabolite: 1.93
  Phosphate, lipid (Phospholipids), change of plasma metabolite: 1.51
  Stearic acid (C18:0), change of plasma metabolite: 1.62
  TAG No 1, change of plasma metabolite: 2.26
  Threonic acid, change of plasma metabolite: 1.49
  Tricosanoic acid (C23:0), change of plasma metabolite: 1.65
Female rats; fh14 (day 14)
  1,2-Dioleoyl-sn-glycero-3-phosphatidyl-L-serine, change of plasma metabolite: 1.69
  4-Hydroxysphinganine, change of plasma metabolite: 2.26
  Arachidonic acid (C20:cis-[5,8,11,14]4), change of plasma metabolite: 1.93
  Behenic acid (C22:0), change of plasma metabolite: 2.48
  Ceramide (d18:1, C24:0), change of plasma metabolite: 2.13
  Cholesterol, change of plasma metabolite: 2.23
  Docosahexaenoic acid (C22:cis[4,7,10,13,16,19]6), change of plasma metabolite: 2.21
  Glycerol, lipid fraction, change of plasma metabolite: 1.88
  Glycerolphosphate, lipid fraction, change of plasma metabolite: 1.97
  Heptadecanoic acid (C17:0), change of plasma metabolite: 1.64
  ID28x493, change of plasma metabolite: 3.14
  Lignoceric acid (C24:0), change of plasma metabolite: 2.29
  Linoleic acid (C18:cis[9,12]2), change of plasma metabolite: 2.33
  Nervonic acid (C24:1), change of plasma metabolite: 2.69
  Palmitic acid (C16:0), change of plasma metabolite: 2.08
  Phosphate, lipid (Phospholipids), change of plasma metabolite: 1.35
  Stearic acid (C18:0), change of plasma metabolite: 1.67
  TAG No 1, change of plasma metabolite: 2.87
  Threonic acid, change of plasma metabolite: 1.37
Female rats; fh28 (day 28)
  1,2-Dioleoyl-sn-glycero-3-phosphatidyl-L-serine, change of plasma metabolite: 1.47
  4-Hydroxysphinganine, change of plasma metabolite: 2.22
  Arachidonic acid (C20:cis-[5,8,11,14]4), change of plasma metabolite: 1.80
  Behenic acid (C22:0), change of plasma metabolite: 2.18
  Ceramide (d18:1, C24:0), change of plasma metabolite: 1.82
  Cholesterol, change of plasma metabolite: 2.08
  Docosahexaenoic acid (C22:cis[4,7,10,13,16,19]6), change of plasma metabolite: 1.76
  Glycerol, lipid fraction, change of plasma metabolite: 1.89
  Glycerolphosphate, lipid fraction, change of plasma metabolite: 2.35
  Heptadecanoic acid (C17:0), change of plasma metabolite: 1.48
  ID28x493, change of plasma metabolite: 2.02
  Lignoceric acid (C24:0), change of plasma metabolite: 2.45
  Linoleic acid (C18:cis[9,12]2), change of plasma metabolite: 2.37
  Nervonic acid (C24:1), change of plasma metabolite: 2.91
  Palmitic acid (C16:0), change of plasma metabolite: 1.93
  Phosphate, lipid (Phospholipids), change of plasma metabolite: 1.59
  Stearic acid (C18:0), change of plasma metabolite: 1.61
  TAG No 1, change of plasma metabolite: 3.81
  Threonic acid, change of plasma metabolite: 1.19
Male rats; mh7 (day 7)
  1,2-Dioleoyl-sn-glycero-3-phosphatidyl-L-serine, change of plasma metabolite: 1.31
  4-Hydroxysphingosine, change of plasma metabolite: 2.14
  Arachidonic acid (C20:cis-[5,8,11,14]4), change of plasma metabolite: 1.68
  Behenic acid (C22:0), change of plasma metabolite: 2.07
  Ceramide (d18:1, C24:0), change of plasma metabolite: 1.72
  Ceramide (d18:1, C24:1), change of plasma metabolite: 1.71
  Cholesterol, change of plasma metabolite: 2.01
  Docosahexaenoic acid (C22:cis[4,7,10,13,16,19]6), change of plasma metabolite: 1.96
  Eicosatrienoic acid, change of plasma metabolite: 2.55
  Glycerolphosphate, lipid fraction, change of plasma metabolite: 1.86
  Heptadecanoic acid (C17:0), change of plasma metabolite: 1.27
  Lignoceric acid (C24:0), change of plasma metabolite: 2.04
  Linoleic acid (C18:cis[9,12]2), change of plasma metabolite: 1.71
  Nervonic acid (C24:1), change of plasma metabolite: 2.53
  Palmitic acid (C16:0), change of plasma metabolite: 1.38
  Phosphatidylcholine (C18:2, C20:4), change of plasma metabolite: 1.18
  alpha-Tocopherol, change of plasma metabolite: 2.69
  myo-Inositol-2-monophosphate, lipid fraction, change of plasma metabolite: 1.92
Male rats; mh14 (day 14)
  1,2-Dioleoyl-sn-glycero-3-phosphatidyl-L-serine, change of plasma metabolite: 1.28
  4-Hydroxysphingosine, change of plasma metabolite: 2.07
  Arachidonic acid (C20:cis-[5,8,11,14]4), change of plasma metabolite: 1.74
  Behenic acid (C22:0), change of plasma metabolite: 2.15
  Ceramide (d18:1, C24:0), change of plasma metabolite: 1.40
  Ceramide (d18:1, C24:1), change of plasma metabolite: 1.70
  Cholesterol, change of plasma metabolite: 2.15
  Docosahexaenoic acid (C22:cis[4,7,10,13,16,19]6), change of plasma metabolite: 1.99
  Eicosatrienoic acid, change of plasma metabolite: 2.02
  Glycerolphosphate, lipid fraction, change of plasma metabolite: 1.67
  Heptadecanoic acid (C17:0), change of plasma metabolite: 1.51
  Lignoceric acid (C24:0), change of plasma metabolite: 2.22
  Linoleic acid (C18:cis[9,12]2), change of plasma metabolite: 1.70
  Nervonic acid (C24:1), change of plasma metabolite: 3.57
  Palmitic acid (C16:0), change of plasma metabolite: 1.64
  Phosphatidylcholine (C18:2, C20:4), change of plasma metabolite: 1.17
  alpha-Tocopherol, change of plasma metabolite: 2.46
  myo-Inositol-2-monophosphate, lipid fraction, change of plasma metabolite: 2.48
Male rats; mh28 (day 28)
  1,2-Dioleoyl-sn-glycero-3-phosphatidyl-L-serine, change of plasma metabolite: 1.41
  4-Hydroxysphingosine, change of plasma metabolite: 2.35
  Arachidonic acid (C20:cis-[5,8,11,14]4), change of plasma metabolite: 1.55
  Behenic acid (C22:0), change of plasma metabolite: 2.24
  Ceramide (d18:1, C24:0), change of plasma metabolite: 1.63
  Ceramide (d18:1, C24:1), change of plasma metabolite: 1.88
  Cholesterol, change of plasma metabolite: 1.81
  Docosahexaenoic acid (C22:cis[4,7,10,13,16,19]6), change of plasma metabolite: 2.06
  Eicosatrienoic acid, change of plasma metabolite: 1.60
  Glycerolphosphate, lipid fraction, change of plasma metabolite: 1.59
  Heptadecanoic acid (C17:0), change of plasma metabolite: 1.25
  Lignoceric acid (C24:0), change of plasma metabolite: 2.52
  Linoleic acid (C18:cis[9,12]2), change of plasma metabolite: 1.49
  Nervonic acid (C24:1), change of plasma metabolite: 3.39
  Palmitic acid (C16:0), change of plasma metabolite: 1.41
  Phosphatidylcholine (C18:2, C20:4), change of plasma metabolite: 1.26
  alpha-Tocopherol, change of plasma metabolite: 1.87
  myo-Inositol-2-monophosphate, lipid fraction, change of plasma metabolite: 2.31
